From US20230183237A1, “COMPETITIVE AND NONCOMPETITIVE INHIBITORS OF THE MUSCARINIC ACETYLCHOLINE RECEPTOR M5” (Vanderbilt University, priority 2020, published 2023)
Where two headings read alike, the source gives them in different places.

Molecular target: T1, hM5 (Homo sapiens, UniProt P08912)
T1 construct: expressed in transfected cells
T1 sequence (P08912 1-532): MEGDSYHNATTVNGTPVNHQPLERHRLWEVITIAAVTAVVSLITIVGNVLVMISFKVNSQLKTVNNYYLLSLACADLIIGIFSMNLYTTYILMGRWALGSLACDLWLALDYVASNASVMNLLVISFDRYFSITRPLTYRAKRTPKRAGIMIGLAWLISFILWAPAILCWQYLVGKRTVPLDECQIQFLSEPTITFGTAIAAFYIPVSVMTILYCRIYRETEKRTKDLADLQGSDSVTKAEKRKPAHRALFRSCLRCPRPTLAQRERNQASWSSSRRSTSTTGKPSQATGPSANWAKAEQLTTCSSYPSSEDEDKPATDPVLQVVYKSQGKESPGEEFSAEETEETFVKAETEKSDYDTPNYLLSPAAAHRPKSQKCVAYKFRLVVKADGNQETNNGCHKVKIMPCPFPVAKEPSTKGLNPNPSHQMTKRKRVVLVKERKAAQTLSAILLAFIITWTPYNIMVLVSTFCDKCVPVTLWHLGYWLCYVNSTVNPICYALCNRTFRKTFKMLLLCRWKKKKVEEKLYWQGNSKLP
Assay: Calcium mobilization concentration-response (IC50 vs EC80 acetylcholine), CHO hM5
Assay type: cell-based
Details: CELL LINE hM5, read-out: IC50
Procedure, shortened: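 CHO cells stably expressing hM5, dye-loaded, in HBSS/20 mM HEPES/2.5 mM probenecid, pH 7.4. Compounds were pre-incubated 140 s before an EC80 acetylcholine challenge, with calcium flux read kinetically.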

[1] = calcium mobilization, EC80 acetylcholine addition

IC50 (vs EC80 acetylcholine) [µM] | IC50 [1] [µM] | Structure (SMILES)
0.174 |  | [2H]C1([2H])CC(c2cn3ncnc3c(F)c2C)CC([2H])([2H])N1S(=O)(=O)c1cnc(C)o1 [Compound 569, 5-((4-(8-fluoro-7-methyl-[1,2,4]triazolo[1,5-a]pyridin-6-yl)piperidin-1-yl-2,2,6,6-d4)sulfonyl)-2-methyloxazole]
 | 0.974 | Cc1cc2ncnn2nc1C1=CCN(S(=O)(=O)c2cnn(C)c2C)CC1 [Compound 169, 6-(1-((1,5-dimethyl-1H-pyrazol-4-yl)sulfonyl)-1,2,3,6-tetrahydropyridin-4-yl)-7-methyl-[1,2,4]triazolo[1,5-b]pyridazine]
 | 0.173 | O=S(=O)(c1c(Cl)nc2sccn12)N1CCC(c2cn3ncnc3cc2C(F)(F)F)CC1 [Compound 340, 6-chloro-5-((4-(7-(trifluoromethyl)-[1,2,4]triazoto[1,5-a]pyridin-6-yl)piperidin-1-yl)sulfonyl)imidazo[2,1-b]thiazole]
 | 0.123 | Cc1cc2nccn2nc1C1CCN(S(=O)(=O)c2cnc(C)n2C)CC1 [Compound 252, 6-(1-((1,2-dimethyl-1H-imidazol-5-yl)sulfonyl)piperidin-4-yl)-7-methylimidazo[1,2-b]pyridazine]
 | 0.012 | [2H]C([2H])([2H])n1nc(Cl)c(S(=O)(=O)N2CCC(c3cn4ncnc4c(F)c3C)CC2)c1C [Compound 319, 6-(1-((3-chloro-5-methyl-1-(methyl-d3)-1H-pyrazol-4-yl)sulfonyl)piperidin-4-yl)-8-fluoro-7-methyl-[1,2,4]triazolo[1,5-a]pyridine]
 | 0.057 | O=S(=O)(c1cnn2c1NCCC2)N1CCC(c2cn3ncnc3cc2F)CC1 [Compound 253, 7-fluoro-6-(1-((4,5,6,7-tetrahydropyrazolo[1,5-a]pyrimidin-3-yl)sulfonyl)piperidin-4-yl)-[1,2,4]triazolo[1,5-a]pyridine]
> 10 |  | Cn1nc(C2CCN(S(=O)(=O)c3cnn(C)c3Cl)CC2)cc1-c1ccco1 [Compound 591, 1-((5-Chloro-1-methyl-1H-pyrazol-4-yl)sulfonyl)-4-(5-(furan-2-yl)-1-methyl-1H-pyrazol-3-yl)piperidine]
 | 0.019 | Cc1cc2nccn2nc1C1CCN(S(=O)(=O)c2cnn3c2CCCC3)CC1 [Compound 247, 7-methyl-6-(1-((4,5,6,7-tetrahydropyrazolo[1,5-a]pyridin-3-yl)sulfonyl)piperidin-4-yl)imidazo[1,2-b]pyridazine]
0.295 |  | Cc1cc(S(=O)(=O)N2CCC(c3cn4ncnc4cc3F)CC2)sn1 [Compound 500, 5-((4-(7-fluoro-[1,2,4]triazolo[1,5-a]pyridin-6-yl)piperidin-1-yl)sulfonyl)-3-methylisothiazole]
> 10 |  | CC(=O)NCc1c(S(=O)(=O)N2CCC(c3cn4ncnc4cc3C)CC2)cnn1C [Compound 543, N-((1-methyl-4-((4-(7-methyl-[1,2,4]triazolo[1,5-a]pyridin-6-yl)piperidin-1-yl)sulfonyl)-1H-pyrazol-5-yl)methyl)acetamide]
> 10 |  | Cn1cnnc1S(=O)(=O)N1CCC(c2cn3ncnc3cc2C(F)(F)F)CC1 [Compound 520, 6-(1-((4-methyl-4H-1,2,4-triazol-3-yl)sulfonyl)piperidin-4-yl)-7-(trifluoromethyl)-[1,2,4]triazolo[1,5-a]pyridine]
1.46 |  | CO[C@@H]1CN(S(=O)(=O)c2cnn3c2OCCC3)CC[C@H]1c1cn2ncnc2cc1C (racemic) [Compound 414, (rac)-3-((trans-3-methoxy-4-(7-methyl-[1,2,4]triazolo[1,5-a]pyridin-6-yl)piperidin-1-yl)sulfonyl)-6,7-dihydro-5H-pyrazolo[5,1-b][1,3]oxazine]
 | 0.518 | Cc1cc2ncnn2cc1C1=CCN(S(=O)(=O)c2ccc3c(c2)CCO3)CC1 [Compound 35, 6-(1-((2,3-dihydrobenzofuran-5-yl)sulfonyl)-1,2,3,6-tetrahydropyridin-4-yl)-7-methyl-[1,2,4]triazolo[1,5-a]pyridine]
0.021 |  | Cc1cc(S(=O)(=O)N2CCC(c3cn4ncnc4cc3C(F)F)CC2)sn1 [Compound 494, 5-((4-(7-(difluoromethyl)-[1,2,4]triazolo[1,5-a]pyridin-6-yl)piperidin-1-yl)sulfonyl)-3-methylisothiazole]
 | > 10 | O=S(=O)(c1ccc2ncsc2c1)N1CCC(c2cn3ccccc3n2)CC1 [Compound 9, 6-((4-(imidazo[1,2-a]pyridin-2-yl)piperidin-1-yl)sulfonyl)benzo[d]thiazole]
 | > 10 | O=S(=O)(c1cc2c(cc1F)OCC2)N1CCC(c2cn3ncnc3cc2F)CC1 [Compound 106, 7-fluoro-6-(1-((6-fluoro-2,3-dihydrobenzofuran-5-yl)sulfonyl)piperidin-4-yl)-[1,2,4]triazolo[1,5-a]pyridine]

IC50 (vs EC80 acetylcholine) [µM] | IC50 [1] [µM] | Structure (SMILES)
0.889 |  | CCc1cc2ncnn2cc1C1CCN(S(=O)(=O)c2cnc(C)o2)CC1 [Compound 496, 5-((4-(7-ethyl-[1,2,4]triazolo[1,5-a]pyridin-6-yl)piperidin-1-yl)sulfonyl)-2-methyloxazole]
0.028 |  | Cc1nnc(S(=O)(=O)N2CCC(c3cn4ncnc4cc3Cl)CC2)s1 [Compound 540, 2-((4-(7-Chloro[1,2,4]triazolo[1,5-a]pyridin-6-yl)piperidin-1-yl)sulfonyl)-5-methyl-1,3,4-thiadiazole]
0.268 |  | CO[C@@H]1CN(S(=O)(=O)c2cnn(C)c2Cl)CC[C@H]1c1cn2ncnc2cc1C (racemic) [Compound 413, (rac)-6-(trans-1-((5-chloro-1-methyl-1H-pyrazol-4-yl)sulfonyl)-3-methoxypiperidin-4-yl)-7-methyl-[1,2,4]triazolo[1,5-a]pyridine]
 | > 10 | Cc1cc2ncnn2cc1C1(O)CCN(S(=O)(=O)c2ccc3c(c2)CCO3)CC1 [Compound 310, 1-((2,3-dihydrobenzofuran-5-yl)sulfonyl)-4-(7-methyl-[1,2,4]triazolo[1,5-a]pyridin-6-yl)piperidin-4-ol]
 | 0.069 | Cc1cc2ncnn2cc1C1CCN(S(=O)(=O)c2ccc3c(c2)C(C)CO3)CC1 (centres unmarked) [Compound 73, 7-methyl-6-(1-((3-methyl-2,3-dihydrobenzofuran-5-yl)sulfonyl)piperidin-4-yl)-[1,2,4]triazolo[1,5-a]pyridine]
 | > 10 | Cc1cc2ncnn2cc1C1CCN(S(=O)(=O)c2ccc3c(c2)ncn3C)CC1 [Compound 189, 7-methyl-6-(1-((1-methyl-1H-benzo[d]imidazol-5-yl)sulfonyl)piperidin-4-yl)-[1,2,4]triazolo[1,5-a]pyridine]
 | > 10 | Cc1cc2ncnn2nc1C1CCN(S(=O)(=O)c2cn(C)nc2C)CC1 [Compound 182, 6-(1-((1,3-dimethyl-1H-pyrazol-4-yl)sulfonyl)piperidin-4-yl)-7-methyl-[1,2,4]triazolo[1,5-b]pyridazine]
> 10 |  | COC1(c2cn3ncnc3cc2C)CCN(S(=O)(=O)c2cnn(C)c2C)CC1 [Compound 412, 6-(1-((1,5-dimethyl-1H-pyrazol-4-yl)sulfonyl)-4-methoxypiperidin-4-yl)-7-methyl-[1,2,4]triazolo[1,5-a]pyridine]
0.017 |  | Cc1cc(S(=O)(=O)N2CCC(c3cn4ncnc4c(F)c3C)CC2)sn1 [Compound 485, 5-((4-(8-fluoro-7-methyl-[1,2,4]triazolo[1,5-a]pyridin-6-yl)piperidin-1-yl)sulfonyl)-3-methylisothiazole]
 | 0.182 | [2H]C1([2H])Oc2cc(C)c(C3CCN(S(=O)(=O)c4cnn(C)c4C)CC3)cc2OC1([2H])[2H] [Compound 389, 1-((1,5-dimethyl-1H-pyrazol-4-yl)sulfonyl)-4-(7-methyl-2,3-dihydrobenzo[b][1,4]dioxin-6-yl-2,2,3,3-d4)piperidine]
 | 0.341 | CCc1cc2ncnn2cc1C1CCN(S(=O)(=O)c2cnc3ccccn23)CC1 [Compound 334, 7-ethyl-6-(1-(imidazo[1,2-a]pyridin-3-ylsulfonyl)piperidin-4-yl)-[1,2,4]triazolo[1,5-a]pyridine]
1.46 |  | Cn1ncc(S(=O)(=O)N2CCC(c3cc(-c4ccco4)n[nH]3)CC2)c1Cl [Compound 587]
 | 1.3 | Cc1cc2ncnn2cc1C1CCN(S(=O)(=O)c2cn(C)cn2)CC1 [Compound 128, 7-methyl-6-(1-((1-methyl-1H-imidazol-4-yl)sulfonyl)piperidin-4-yl)-[1,2,4]triazolo[1,5-a]pyridine]
0.059 |  | Cc1cc2nccn2nc1N1CCN(S(=O)(=O)c2cnn3c2OCCC3)CC1 [Compound 437, 3-((4-(7-methylimidazo[1,2-b]pyridazin-6-yl)piperazin-1-yl)sulfonyl)-6,7-dihydro-5H-pyrazolo[5,1-b][1,3]oxazine]
9.51 |  | Cc1cc2ncnn2nc1C1CCN(S(=O)(=O)c2cnc(Cl)s2)CC1 [Compound 536, 2-chloro-5-((4-(7-methyl-[1,2,4]triazolo[1,5-b]pyridazin-6-yl)piperidin-1-yl)sulfonyl)thiazole]
 | > 10 | Cc1cc2ncnn2nc1C1=CCN(S(=O)(=O)c2ccc3c(c2)CCO3)CC1 [Compound 167, 6-(1-((2,3-dihydrobenzofuran-5-yl)sulfonyl)-1,2,3,6-tetrahydropyridin-4-yl)-7-methyl-[1,2,4]triazolo[1,5-b]pyridazine]
